Results reported in US4086416A, “Septacidin analogs” (Stanford Research Institute, priority 1977, dated 1978).
“Also recorded” adds a separate entry of the source. Like-named read-outs stand apart in the source and are kept apart here.

Key:
[1] = antitumor activity (test not specified)
[2] = system: cultured lymphoid leukemia L1210 cells; experiment: in vitro activity in cultured L1210 cells (inhibition of nucleic acid syntheses); type: cell-based
Description: (§1) The septacidin analogs 2 and 3 (corresponding to the compounds of Examples I and II, respectively) were tested first in cultured lymphoid leukemia L1210 cells for inhibition of nucleic acid syntheses and for cytotoxicity,by previously reported procedures. A sample of natural septacidin (compound 1) was obtained from the National Cancer Institute and included for comparison. Data on adriamycin (compound 4) are also included. The analogs were then tested, along with 1 and 4, against lymphocytic leukemia P388 implanted in mice, under the auspices of the NCI and according to its protocols which use the increased survival time of treated animals compared to controls as the measure of antitumor efficacy.
(§2) ^b Assay described in G. Tong, W. W. Lee, D. R. Black and D. W. Henry

[3] = system: cultured lymphoid leukemia L1210 cells; experiment: inhibition of DNA synthesis in cultured L1210 leukemia cells; type: cell-based
Description: as §1, §2

[4] = system: lymphocytic leukemia P388 implanted in mice; experiment: antitumor efficacy vs P388 leukemia in mice (increased survival time); type: in vivo; details: for antitumor activity in mouse tests: NCI criteria, doses of 0.5-1.0 mg/kg; for Optimum Antitumor Efficacy, T/C / Optimum Antitumor Dose: P388 leukemia in mice; for Optimum Antitumor Efficacy, T/C: at optimum dose (septacidin 0.50, compounds 2 and 3 1.0 mg/kg), compounds 2 and 3 average from two tests; for Optimum Antitumor Dose: dose producing the highest T/C
Description: as §1
^c Assay described in R. I. Geran, N. H. Greenberg, M. M. MacDonald,
A. M. Schumacker and B. J. Abbott, Cancer Chemother. Rep., Part 3, 3 (No.
2), 9 (1972). Protocol 1.200. Other doses were higher or lower by a facto
of 2. Each compound has 2-4 active doses. Compounds were of borderline
solubility, and some doses were injection as suspensions. Water, water +
Tween 80, or saline + Tween 80 (emul. agent, ICI) were used as vehicles.
By definition, a compound is active if T/C […] 125. For compounds 2
and 3 the T/C is the average from two tests. Optimum dose is the one
producing the highest T/C.

solubility = type: physicochemical
[5] = system: cultured lymphoid leukemia L1210 cells; experiment: inhibition of RNA synthesis in cultured L1210 leukemia cells; type: cell-based
Description: as §1, §2

[6] = system: cultured lymphoid leukemia L1210 cells; experiment: cytotoxicity vs cultured L1210 leukemia cells; type: cell-based; details: for IC50: cultured L1210 leukemia cells, read-out: Cytotoxicity I50
Description: as §1, §2

isolated helical DNA [7] = experiment: binding to isolated helical DNA in solution (effect on helix-coil transition temperature)
Source text: The in vivo efficacy of adriamycin is much higher, but there are other differences.
as §2
by the modified procedure.

[8] = system: lymphocytic leukemia P388 implanted in mice; details: cited from earlier work
[9] = system: cultured lymphoid leukemia L1210 cells; details: data from Tong et al. 1976, read-out: Inhibition of Synthesis of DNA, ED50; cited from earlier work
isolated helical DNA [10] = details: cited from earlier work
[11] = system: cultured lymphoid leukemia L1210 cells; details: data from Tong et al. 1976, read-out: Inhibition of Synthesis of RNA, ED50; cited from earlier work
[12] = system: cultured lymphoid leukemia L1210 cells; details: cited from earlier work
[13] = Mus musculus, cultured L1210 leukemia cells, read-out: Inhibition of Synthesis of DNA, ED50
[14] = Mus musculus, cultured L1210 leukemia cells, read-out: Inhibition of Synthesis of RNA, ED50
[15] = in vitro, compared with septacidin (1)

## CCCCCC(=O)NCC(=O)NC1C(C)OC(Nc2ncnc3[nH]cnc23)C(O)C1O [Example VI, 6-[4,6-Didoexy-4-(caproylglycyl)amino-β-L-glucopyranosylamino]-9H-purine]
[1]
  antitumor activity: inactive; also recorded: loss of activity was total

## CCCCCCCCCCCC(=O)NCC(=O)N[C@@H]1[C@@H](O)[C@H](O)[C@@H](Nc2ncnc3[nH]cnc23)O[C@H]1C [Compound 3, 6-[4,6-Dideoxy-4-(lauroylglycyl)amino-β-L-glucopyranosylamino]-9H-purine]
[2]; compared with septacidin (1) or analog 2
  in vitro activity: noticeably less potent; also recorded: decreased activity in vitro
[3]; [13]
  IC50: 29000 nM
[4]; P388 in mice
  antitumor activity in mouse tests: confirmed activity
[4]; qd 1-9
  Optimum Antitumor Efficacy, T/C: 137%
  Optimum Antitumor Dose: 1.0 mg/kg
[4]; fatty acid shortened from 16 to 12 carbons, compared with 2
  efficacy in vivo: slight loss of efficacy in vivo
solubility
  solubility in CH3OH: moderately soluble
  solubility in H2O or saline: slightly soluble
[5]; [14]
  IC50: 18000 nM
[6]; Mus musculus
  IC50: > 10000 nM

## CC(C)CCCCCCCCCCCCC(=O)NCC(=O)NC1C(C)OC(Nc2ncnc3[nH]cnc23)C(O)C1O [Compound 2, 6-[4,6-Dideoxy-4-(isopalmitoylglycyl)amino-β-L-glucopyranosylamino]-9H-purine]
Isolated helical DNA [7]
  Binding to Isolated Helical DNA in Solution, ΔTm: 0.6 °C
Isolated helical DNA [7]; ΔTm
  binding to isolated helical DNA in solution: binds only weakly
[2]
  inhibition of nucleic acid synthesis: potent inhibition of nucleic acid synthesis
[3]; [13]
  IC50: 2600 nM
[3]; [15]
  potency in the DNA test: not as potent
[1]
  antitumor activity: enhanced antitumor activity
[1]; comparison of both in vivo and in vitro data
  potency compared with adriamycin: comparable in potency
[4]; P388 in mice
  antitumor activity in mouse tests: confirmed activity
[4]; qd 1-9
  Optimum Antitumor Efficacy, T/C: 160%
  Optimum Antitumor Dose: 1.0 mg/kg
solubility
  solubility in CH3OH: moderately soluble
  solubility in H2O or saline: slightly soluble
[5]; [14]
  IC50: 880 nM
[5]; [15]
  response in the RNA test: a response nearly the same as 1
[6]; Mus musculus
  IC50: > 20000 nM
[6]; at soluble levels
  cytotoxic effects: could not be observed at soluble levels

## CC(C)CCCCCCCCCCCCC(=O)NCC(=O)NC1C(O)C(O)C(Nc2ncnc3nc[nH]c23)OC1C(O)CO (stereo not drawn) [Septacidin]
[3]; cultured L1210 cells, corrected for 75% purity, assuming inactive impurities, read-out: Inhibition of Synthesis of DNA, ED50, corrected for purity
  IC50: 230 nM
[3]; cultured L1210 leukemia cells, read-out: Inhibition of Synthesis of DNA, ED50
  IC50: 300 nM
[4]; P388 in mice, qd 1-9, corrected for 75% purity, assuming inactive impurities
  Optimum Antitumor Dose, corrected for purity: 0.38 mg/kg
[4]; P388 in mice
  antitumor activity in mouse tests: high antitumor potency
[4]; qd 1-9
  Optimum Antitumor Efficacy, T/C: 154%
  Optimum Antitumor Dose: 0.50 mg/kg
[5]; cultured L1210 cells, corrected for 75% purity, assuming inactive impurities, read-out: Inhibition of Synthesis of RNA, ED50, corrected for purity
  IC50: 530 nM
[5]; cultured L1210 leukemia cells, read-out: Inhibition of Synthesis of RNA, ED50
  IC50: 700 nM
[6]
  IC50: > 5000 nM

## COc1cccc2c1C(=O)c1c(O)c3c(c(O)c1C2=O)C[C@@](O)(C(=O)CO)C[C@@H]3O[C@H]1C[C@H](N)[C@H](O)[C@H](C)O1 [Adriamycin]
[8]; P388 leukemia in mice, at 1.0 mg/kg, qd 1-9, data from Tong et al. 1976
  Optimum Antitumor Efficacy, T/C: 193%
[8]; P388 leukemia in mice, qd 1-9, data from Tong et al. 1976
  Optimum Antitumor Dose: 1.0 mg/kg
[8]; adriamycin compared with 2
  in vivo efficacy: much higher
[9]
  IC50: 1500 nM
Isolated helical DNA [10]; modified procedure, data from Tong et al. 1976
  Binding to Isolated Helical DNA in Solution, ΔTm: 13.6 °C
Isolated helical DNA [10]; ΔTm
  binding to isolated helical DNA in solution: binds strongly
[11]
  IC50: 670 nM
[12]
  cytotoxicity: highly cytotoxic
[12]; cultured L1210 leukemia cells, data from Tong et al. 1976, read-out: Cytotoxicity I50
  IC50: 32 nM
